Data as given in article PMC10238102, “Anti-SARS-CoV-2 Activity of Adamantanes In Vitro and in Animal Models of Infection” (COVID, 2022).
Entries after “also recorded” stand apart in the source; their conditions may differ. Where two headings read alike, the source gives them in different places.

Experiments:
icSARS-CoV-2-mNG [1] = assay: microbe, parasite or virus in culture; format: cell-based, SARS-CoV-2
[2] = Cell viability (CC50) in Vero E6-TMPRSS2-T2A-ACE2 cells; format: cell-based; conditions: African green monkey, Vero E6 T/A cells, Figure 3
[3] = CellTiter-Glo cell viability assay in ACE2-A549 cells; conditions: human
SARS-CoV-2 WA/01 [4] = assay: SARS-CoV-2 WA/01 immunostaining assay in ACE2-A549 cells; format: cell-based; conditions: MOI 0.1, anti-spike staining, 3 DPI (Figure 2A)
[5] = test system: Influenza A/Hong Kong/8/68 (H3N2); assay: microbe, parasite or virus in culture; format: cell-based
in vitro = conditions: human
SARS-CoV-2 [6] = assay: Summary of in vitro assays in human lung epithelial cells expressing ACE2; format: cell-based; conditions: Severe acute respiratory syndrome coronavirus 2, Epithelial cell, read-out: IC50 values (summary range)
ACE2-A549 cells [7] = conditions: human
icSARS-CoV-2-mNG [8] = assay: microbe, parasite or virus in culture; format: cell-based, SARS-CoV-2; conditions: Severe acute respiratory syndrome coronavirus 2, read-out: IC50 (virus titer by plaque assay)
SARS-CoV-2 WA/01 [9] = assay: SARS-CoV-2 WA/01 antiviral assay in Vero E6 cells; format: cell-based; conditions: Severe acute respiratory syndrome coronavirus 2, Vero C1008, strain WA/01
SARS-CoV-2 WA/01 [10] = assay: Golden Syrian hamster infection model, lung virus titer by plaque assay; format: in vivo, golden Syrian hamsters; conditions: 60 mg/kg i.p. every 12 h from 24 h before infection, 4 DPI
Method: The golden Syrian hamster experiment was performed by Dr. Anthony Griffith’s team at the Boston University School of Medicine. Adult hamsters (3 males and 3 females per group) were administered with antiviral compounds i.p. starting 24 h prior to infection until completion of the study. Hamsters were infected with SARS-CoV-2 WA/01 i.n. (4 × 10^4 PFU in 100 μL). At 4 DPI, hamsters underwent euthanasia and their lungs were collected to perform plaque assays to measure virus titer in the tissues. Lung tissue from each hamster was stored at −80 °C prior to titer. Tissues were removed from −80 °C and thawed at 4 °C before being weighed and cut to a weight ≤100 mg. Each tissue sample was then homogenized using a TissueLyser II (Qiagen, Germantown, MD, USA) in a final volume of 1 mL using DMEM/2% FBS/antibiotic-antimycotic (Gibco™). Each tissue homogenate was then diluted and 200 μL of each dilution or control was added to confluent monolayers of Vero E6 cells in duplicate and incubated for 1 h at 37 °C and 5% CO2. The plates were gently rocked every 5–10 min to prevent monolayer drying. […]

[11] = cited from earlier work
SARS-CoV-2 [12] = conditions: obtained by Zhou et al.; cited from earlier work
[13] = cited from earlier work; remark: listed apart in the source
SARS-CoV-2 protein E = test system: SARS-CoV-2 protein E; parameters: method as in PMID 34893762; conditions: expressed in X. laevis oocytes; cited from earlier work
SARS-CoV-2 ORF10 = test system: SARS-CoV-2 ORF10; parameters: method as in PMID 34893762; conditions: expressed in X. laevis oocytes; cited from earlier work
ACE2-A549 cells [14] = assay: CellTiter-Glo cell viability assay in ACE2-A549 cells
[15] = Body weight and deaths of treated, infected BALB/c mice; conditions: 60 mg/kg i.n. every 12 h, n = 6 mice per group
[16] = Severe acute respiratory syndrome coronavirus 2
[17] = Severe acute respiratory syndrome coronavirus 2, ACE2-A549 cells

Row | Compound | IC50 (icSARS-CoV-2-mNG [1]; [16]) | CC50 at 48 h [2] | IC50 (SARS-CoV-2 WA/01 [4]; [17]) | IC50 [5] | IC50 (icSARS-CoV-2-mNG [1]) | CC50 (in vitro) | IC50 (SARS-CoV-2 [6]) | IC50 (icSARS-CoV-2-mNG [8]) | IC50 (SARS-CoV-2 WA/01 [9]) | lung virus titer vs no-drug control (SARS-CoV-2 WA/01 [10]) | IC50 (SARS-CoV-2 [12]) | channel activity of protein E (SARS-CoV-2 protein E) | channel activity of ORF10 (SARS-CoV-2 ORF10) | other results
1 | CCC(CC)COC(=O)[C@H](C)N[P@](=O)(OC[C@H]1O[C@@](C#N)(c2ccc3c(N)ncnn23)[C@H](O)[C@@H]1O)Oc1ccccc1 [remdesivir] | 0.08 µM | ≥ 10 µM | 0.04 µM | – | – | – | – | – | – | – | – | – | – | CC50 [3]: ≥ 3 µM
2 | CN(C)CCOCC(=O)NC12CC3CC(CC(C3)C1)C2 [tromantadine] | 98 µM | – | 56 µM | 94.2 µM | 97.6 µM | 312 µM | 60 to 100 µM | 88.9 µM | – | – | – | – | – | CC50 (ACE2-A549 cells [7]): 305 µM
3 | NC12CC3CC(CC(C3)C1)C2 [amantadine] | 120 µM | ≥ 1000 µM | 136 µM | 0.46 µM | 120 µM | ≥ 1000 µM | 120 to 130 µM | 34.6 µM | 413 µM | did not significantly inhibit | 116 µM | decreased channel activities | decreased channel activities | Cmax ([11]; read-out: Cmax plasma level, mice, single-dose i.p. injection of 60 mg/kg): 47 µM; ratio of nasal mucus to plasma concentration, compared with rimantadine ([13]; after single 200-mg doses): about two-fold higher; concentration in autopsy lung tissue relative to serum concentration ([13]; autopsy lung tissue from an infant): 14 times; Cmax ([13]; multiple dose, 258 mg extended-release tablet once daily): 4.16 µM
4 | NC(N)=NC(=O)c1nc(Cl)c(N2CCCCCC2)nc1N [hexamethylene-amiloride] | – | – | – | – | – | – | – | – | – | – | – | decreased channel activities | decreased channel activities | –
5 | O=c1nc(NO)ccn1[C@@H]1O[C@H](CO)[C@@H](O)[C@H]1O [EIDD-1931] | – | – | – | – | – | – | – | – | – | – | – | – | – | IC50 (icSARS-CoV-2-mNG [1]; read-out: IC50): 1.5 µM; CC50 (ACE2-A549 cells [14]; Figure 1A): 130 µM; CC50 (ACE2-A549 cells [14]; Figure 2A): 100 µM; IC50 (SARS-CoV-2 WA/01 [4]; ACE2-A549 cells, read-out: IC50): 0.36 µM
6 | CC(N)C12CC3CC(CC(C3)C1)C2 (centres unmarked) [rimantadine] | 30 µM | ≥ 300 µM | 34 µM | 0.05 µM | 29.8 µM | ≥ 300 µM | 30 to 40 µM | 12.6 µM | 121 µM | modestly but significantly inhibited; also recorded: mild but significant antiviral effect | 36 µM | not reported to be inhibited | – | Cmax ([11]; mouse, in vivo, po, 40 mg/kg): 9.3 µM; Cmax ([13]; in vivo, 100 mg): 0.54 to 2.17 µM; mice found dead within 1 DPI [15]: Two
